ChEMBL document CHEMBL1201862, “PubChem BioAssay data set” (2004)
The source made the active and inactive calls.

What was measured:
[1] = viability loss in HeLa cells – cytotoxicity control for MgcRacGAP inhibitor project, dose response (AID 624300); assay type: functional
[2] = molecular target: T1, Neuropeptide Y receptor type 1 (Homo sapiens, UniProt P25929); assay: Fluorescence-based counterscreen for potentiators or agonists of NPY-Y2: cell-based high-throughput dose response assay for potentiators or agonists of NPY-Y1.; assay type: functional
T1 sequence (P25929 whole entry): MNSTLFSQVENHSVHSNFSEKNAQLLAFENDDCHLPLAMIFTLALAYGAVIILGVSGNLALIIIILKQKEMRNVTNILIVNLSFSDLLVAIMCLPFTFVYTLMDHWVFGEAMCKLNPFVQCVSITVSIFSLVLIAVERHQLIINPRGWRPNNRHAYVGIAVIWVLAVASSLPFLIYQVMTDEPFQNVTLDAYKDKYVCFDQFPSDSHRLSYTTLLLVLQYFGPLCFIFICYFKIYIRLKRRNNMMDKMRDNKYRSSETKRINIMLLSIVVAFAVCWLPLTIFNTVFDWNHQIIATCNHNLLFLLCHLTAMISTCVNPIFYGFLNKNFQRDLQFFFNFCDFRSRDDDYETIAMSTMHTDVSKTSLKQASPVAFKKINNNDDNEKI

[3] = test system: Streptococcus sp. 'group A'; assay: Streptococcus pyogenes SK(-)GAS viability under kanamycin – luminescence, BacTiterGlo, confirmation, counter-screen for streptokinase expression inhibitor project, dose response (AID 1900); assay type: functional, organism-based
[4] = molecular target: T1, Neuropeptide Y receptor type 1; assay: Fluorescence-based counterscreen for agonists of NPY-Y2: cell-based high-throughput dose response assay for agonists of NPY-Y1.; assay type: functional
HEK293 = assay: Fluorescence-based counterscreen for potentiators or agonists of NPY-Y2: cell-based high-throughput dose response assay to identify inhibitors of cyclic nucleotide gated ion channel (CNGC) activity. In this assay, the parental HEK293 cell line transfected with a cyclic-nucleotide gated ion channel (CNGC)-based cAMP sensor is used to measure inhibition of isoproterenol-induced CNGC activity by test compound.; assay type: functional; details: Homo sapiens;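 note: stimulus is 1 µM isoproterenol at EC100 plus PDE inhibitor Ro 20-1724 at 25 µM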
[5] = molecular target: T2, Rac GTPase-activating protein 1 (Homo sapiens, UniProt Q9H0H5); assay: blockers of MgcRacGAP-driven Rac1 GTP hydrolysis – biochemical, ADP Hunter fluorescence, primary and confirmatory, confirmation (AID 624330); assay type: functional
T2 sequence (Q9H0H5 whole entry): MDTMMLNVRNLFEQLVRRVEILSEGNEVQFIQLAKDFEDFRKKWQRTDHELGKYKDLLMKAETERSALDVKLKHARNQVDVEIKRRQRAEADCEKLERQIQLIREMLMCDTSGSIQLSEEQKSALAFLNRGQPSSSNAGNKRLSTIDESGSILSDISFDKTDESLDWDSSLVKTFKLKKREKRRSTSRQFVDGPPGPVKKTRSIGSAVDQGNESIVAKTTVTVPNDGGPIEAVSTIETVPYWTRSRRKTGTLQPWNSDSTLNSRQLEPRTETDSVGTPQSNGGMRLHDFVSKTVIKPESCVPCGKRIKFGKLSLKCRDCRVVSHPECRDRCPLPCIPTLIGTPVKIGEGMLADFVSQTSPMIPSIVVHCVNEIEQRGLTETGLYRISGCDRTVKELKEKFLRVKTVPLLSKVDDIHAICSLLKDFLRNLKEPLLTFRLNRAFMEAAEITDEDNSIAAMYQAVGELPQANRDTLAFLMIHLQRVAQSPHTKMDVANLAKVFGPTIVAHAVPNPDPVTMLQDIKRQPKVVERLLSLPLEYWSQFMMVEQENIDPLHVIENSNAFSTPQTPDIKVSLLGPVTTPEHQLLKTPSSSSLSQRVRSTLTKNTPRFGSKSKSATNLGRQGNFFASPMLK

[6] = molecular target: T3, Neuropeptide Y receptor type 2 (Homo sapiens, UniProt P49146); assay: Fluorescence-based cell-based high-throughput dose response assay for agonists of NPY-Y2. [Related pubchem assays: 1703 (Screening assay (CNGC inhibitors).), 1359 (Screening assay (NPY-Y2 potentiators or agonists).), 1304 (Screening assay (NPY-Y1 potentiators or agonists).), 1710 (Screening assay (NPY-Y2 agonists).), 1791 (Summary AID.)]; assay type: functional
T3 sequence (P49146 whole entry): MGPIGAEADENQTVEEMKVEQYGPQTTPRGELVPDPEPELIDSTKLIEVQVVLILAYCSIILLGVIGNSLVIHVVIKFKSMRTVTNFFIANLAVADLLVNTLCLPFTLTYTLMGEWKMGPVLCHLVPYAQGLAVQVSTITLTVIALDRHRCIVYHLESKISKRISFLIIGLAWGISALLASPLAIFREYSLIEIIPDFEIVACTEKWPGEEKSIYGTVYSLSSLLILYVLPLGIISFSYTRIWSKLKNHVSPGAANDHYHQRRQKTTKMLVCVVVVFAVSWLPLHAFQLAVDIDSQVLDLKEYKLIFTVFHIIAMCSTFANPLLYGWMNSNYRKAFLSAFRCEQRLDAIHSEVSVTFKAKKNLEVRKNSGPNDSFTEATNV

[7] = molecular target: T3, Neuropeptide Y receptor type 2; assay: Fluorescence-based cell-based high-throughput dose response assay for potentiators or agonists of NPY-Y2. [Related pubchem assays: 1539 (Screening assay (NPY-Y2 potentiators or agonists).), 1703 (Screening assay (CNGC inhibitors).), 1359 (Screening assay (NPY-Y2 potentiators or agonists).), 1304 (Screening assay (NPY-Y1 potentiators or agonists).) …; assay type: functional
[8] = molecular target: G-protein coupled receptor 55 (Homo sapiens, UniProt Q9Y2T6); assay: inhibition of LPI-stimulated GPR55 beta-arrestin translocation – imaging, U2OS, beta-arrestin-GFP, LPI agonist, primary screen (AID 2013); assay type: functional;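 note: antagonist potency measured as reduced agonist-driven arrestin aggregation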
Streptococcus = assay: GAS UMAA2166 growth inhibition – luminescence, BacTiterGlo, counter-screen for streptokinase expression inhibitor project, dose response (AID 1915); assay type: functional, organism-based;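 note: potency for reduction of bacterial viability or growth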
Streptokinase A = molecular target: T4, Streptokinase A (Streptococcus pyogenes serotype M1, UniProt P10520); assay: viability-normalized secreted streptokinase activity reduction – plasminogen activation absorbance, OD405, dose response (AID 1914); assay type: functional, Streptococcus pyogenes M1 GAS;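 note: secreted streptokinase activity via plasminogen activation per viability signal from cell pellet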
T4 sequence (P10520 whole entry): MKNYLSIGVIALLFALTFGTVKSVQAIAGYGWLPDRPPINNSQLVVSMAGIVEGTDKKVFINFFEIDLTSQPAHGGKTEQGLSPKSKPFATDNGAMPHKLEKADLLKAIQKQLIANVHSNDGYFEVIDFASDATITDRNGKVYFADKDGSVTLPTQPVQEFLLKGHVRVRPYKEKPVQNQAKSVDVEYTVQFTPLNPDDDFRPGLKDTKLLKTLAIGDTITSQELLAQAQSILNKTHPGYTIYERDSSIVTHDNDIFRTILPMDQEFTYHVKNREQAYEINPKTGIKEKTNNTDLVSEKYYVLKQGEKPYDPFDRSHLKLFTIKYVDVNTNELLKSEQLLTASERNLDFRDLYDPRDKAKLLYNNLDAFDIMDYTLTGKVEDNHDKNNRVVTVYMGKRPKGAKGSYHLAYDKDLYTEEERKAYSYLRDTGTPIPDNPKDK

[9] = molecular target: Induced myeloid leukemia cell differentiation protein Mcl-1 (Homo sapiens, UniProt Q07820); assay type: functional
NADPH oxidase 1 = molecular target: T5, NADPH oxidase 1 (Homo sapiens, UniProt Q9Y5S8); assay: Luminescence-based cell-based dose response assay to identify inhibitors of NADPH oxidase 1 (NOX1).; assay type: functional
T5 sequence (Q9Y5S8 whole entry): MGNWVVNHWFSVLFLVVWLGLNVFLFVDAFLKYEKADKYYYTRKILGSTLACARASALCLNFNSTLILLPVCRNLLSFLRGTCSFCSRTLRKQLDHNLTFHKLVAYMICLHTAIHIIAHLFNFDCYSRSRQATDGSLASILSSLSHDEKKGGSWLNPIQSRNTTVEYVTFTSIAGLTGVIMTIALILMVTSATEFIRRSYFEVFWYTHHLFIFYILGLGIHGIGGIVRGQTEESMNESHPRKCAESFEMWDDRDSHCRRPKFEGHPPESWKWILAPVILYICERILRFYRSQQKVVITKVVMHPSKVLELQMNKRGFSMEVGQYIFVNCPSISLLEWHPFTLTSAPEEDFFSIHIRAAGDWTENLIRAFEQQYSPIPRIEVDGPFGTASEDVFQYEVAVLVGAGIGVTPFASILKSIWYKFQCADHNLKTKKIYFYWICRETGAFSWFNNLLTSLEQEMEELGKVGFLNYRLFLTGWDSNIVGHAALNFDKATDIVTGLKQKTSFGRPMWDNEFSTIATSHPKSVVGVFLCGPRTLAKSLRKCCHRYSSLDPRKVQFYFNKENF

[10] = A High Throughput Confirmatory Assay used to Identify Novel Compounds that Inhibit Mycobacterium Tuberculosis in the absence of Glycerol.; assay type: functional

Induced myeloid leukemia cell differentiation protein Mcl-1, sequence (Q07820 whole entry): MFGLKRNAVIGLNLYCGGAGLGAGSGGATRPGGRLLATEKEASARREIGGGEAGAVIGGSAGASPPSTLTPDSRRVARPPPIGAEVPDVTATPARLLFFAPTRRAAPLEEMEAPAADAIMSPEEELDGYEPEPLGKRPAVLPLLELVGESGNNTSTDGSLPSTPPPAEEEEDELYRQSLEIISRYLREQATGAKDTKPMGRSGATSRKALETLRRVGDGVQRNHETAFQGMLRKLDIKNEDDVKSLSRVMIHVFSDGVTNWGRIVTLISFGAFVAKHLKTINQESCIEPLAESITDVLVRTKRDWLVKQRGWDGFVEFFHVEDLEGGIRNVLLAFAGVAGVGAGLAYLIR
G-protein coupled receptor 55, sequence (Q9Y2T6 whole entry): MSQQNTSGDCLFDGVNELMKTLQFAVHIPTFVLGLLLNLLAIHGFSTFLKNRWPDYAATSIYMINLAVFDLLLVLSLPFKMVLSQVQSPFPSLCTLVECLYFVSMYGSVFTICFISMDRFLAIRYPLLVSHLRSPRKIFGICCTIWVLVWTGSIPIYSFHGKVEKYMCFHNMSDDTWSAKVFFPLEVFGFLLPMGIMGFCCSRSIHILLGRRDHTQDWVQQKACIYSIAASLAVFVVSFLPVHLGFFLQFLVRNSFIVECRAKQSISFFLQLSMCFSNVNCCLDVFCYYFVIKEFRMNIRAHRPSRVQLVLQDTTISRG

Which CC50 [1] does the source give for `CCOC(=O)c1nc(Nc2ccc(Nc3ccccc3)cc2)c2ccccc2n1` here?
The CC50 was 44.8 µM (active).

And the EC50 [2]?
The EC50 was 13.2 µM (not active).

What about the EC50 [3] of the same compound?
Its EC50 is 10.2 µM (active).

And the EC50 [4]?
The EC50 was 10.9 µM (not active).

What about the EC50 (HEK293) of the same compound?
The EC50 was > 11.8 µM (not active).

And the IC50 [5]?
Its IC50 is 105 µM (active).

And the EC50 [6]?
Its EC50 is 10.1 µM (not active).

What about the EC50 [7] of the same compound?
Its EC50 is 13.2 µM (not active).

What about the IC50 [8] of the same compound?
The IC50 was 2.48 µM (active).

And the EC50 (Streptococcus)?
The EC50 was 12.8 µM (active).

What about the EC50 (Streptokinase A) of the same compound?
The EC50 was > 150 µM (not active).

For `CCN(CC)c1ccc(NC(=O)Nc2cccc(C(C)=O)c2)cc1`, which IC50 [9] is on record?
The IC50 was 3.13 µM (not active).

What about the IC50 (NADPH oxidase 1) of the same compound?
The IC50 was 0.083 µM (active).

For `COC(=O)[C@@H](NC(=O)O[C@@H]1C(=O)c2ccc(OC)cc2O[C@H]1c1cccc(C(F)(F)F)c1)C(C)C`, which IC50 [10] is on record?
Its IC50 is > 100 µM (active).
